Measurements reported in PubChem BioAssay AID1259407 (Chemical Carcinogenesis Research Information System (CCRIS), 2018).
The source made the active and inactive calls. How the calls were made is not given here.

System: CCRIS mutagenicity, Ames/micronucleus/aberration tests
Test: CCRIS mutagenicity studies
[1] = Test System: AMES SALMONELLA TYPHIMURIUM, Strain/Indicator: TA97, Metabolic Activation: NONE, Method: PREINCUBATION
[2] = Test System: AMES SALMONELLA TYPHIMURIUM, Strain/Indicator: TA100, Metabolic Activation: NONE, Method: PREINCUBATION
[3] = Test System: AMES SALMONELLA TYPHIMURIUM, Strain/Indicator: TA100, Metabolic Activation: RAT, LIVER, S-9, AROCLOR 1254, Method: STANDARD PLATE
[4] = End Point: IN VITRO MICRONUCLEUS, Test System: MOUSE LYMPHOMA L5178Y CELLS, Metabolic Activation: NONE
[5] = End Point: IN VITRO MICRONUCLEUS, Test System: MOUSE LYMPHOMA L5178Y CELLS, Metabolic Activation: RAT, LIVER, S-9
[6] = End Point: In vitro micronucleus, Test System: Chinese Hamster Ovary (CHO-WBL) cells, Metabolic Activation: None
[7] = Test System: AMES SALMONELLA TYPHIMURIUM, Strain/Indicator: TA100, Metabolic Activation: NONE, Method: STANDARD PLATE
[8] = Test System: AMES SALMONELLA TYPHIMURIUM, Strain/Indicator: TA100, Metabolic Activation: RAT, LIVER, S-9, Method: STANDARD PLATE
[9] = Test System: AMES SALMONELLA TYPHIMURIUM, Strain/Indicator: TA98, Metabolic Activation: NONE, Method: STANDARD PLATE
[10] = Test System: AMES SALMONELLA TYPHIMURIUM, Strain/Indicator: TA98, Metabolic Activation: RAT, LIVER, S-9, AROCLOR 1254, Method: STANDARD PLATE
[11] = Test System: AMES SALMONELLA TYPHIMURIUM, Strain/Indicator: TA1535, Metabolic Activation: NONE, Method: STANDARD PLATE
[12] = Test System: AMES SALMONELLA TYPHIMURIUM, Strain/Indicator: TA1535, Metabolic Activation: RAT, LIVER, S-9, AROCLOR 1254, Method: STANDARD PLATE
[13] = Test System: AMES SALMONELLA TYPHIMURIUM, Strain/Indicator: TA1537, Metabolic Activation: NONE, Method: STANDARD PLATE
[14] = Test System: AMES SALMONELLA TYPHIMURIUM, Strain/Indicator: TA1537, Metabolic Activation: RAT, LIVER, S-9, AROCLOR 1254, Method: STANDARD PLATE
[15] = Test System: AMES SALMONELLA TYPHIMURIUM, Strain/Indicator: TA1538, Metabolic Activation: NONE, Method: STANDARD PLATE
[16] = Test System: AMES SALMONELLA TYPHIMURIUM, Strain/Indicator: TA1538, Metabolic Activation: RAT, LIVER, S-9, AROCLOR 1254, Method: STANDARD PLATE

COC(C)=O
mutagenic call (Test System: AMES SALMONELLA TYPHIMURIUM, Strain/Indicator: TA97, Metabolic Activation: HAMSTER, LIVER, S-9, AROCLOR 1254 (10 OR 30%), Method: PREINCUBATION): inactive; negative
mutagenic call [1]: inactive; negative
mutagenic call (Test System: AMES SALMONELLA TYPHIMURIUM, Strain/Indicator: TA97, Metabolic Activation: RAT, LIVER, S-9, AROCLOR 1254 (10 OR 30%), Method: PREINCUBATION): inactive; negative
mutagenic call (Test System: AMES SALMONELLA TYPHIMURIUM, Strain/Indicator: TA98, Metabolic Activation: HAMSTER, LIVER, S-9, AROCLOR 1254 (10 OR 30%), Method: PREINCUBATION): inactive; negative
mutagenic call (Test System: AMES SALMONELLA TYPHIMURIUM, Strain/Indicator: TA98, Metabolic Activation: NONE, Method: PREINCUBATION): inactive; negative
mutagenic call (Test System: AMES SALMONELLA TYPHIMURIUM, Strain/Indicator: TA98, Metabolic Activation: RAT, LIVER, S-9, AROCLOR 1254 (10 OR 30%), Method: PREINCUBATION): inactive; negative
mutagenic call (Test System: AMES SALMONELLA TYPHIMURIUM, Strain/Indicator: TA100, Metabolic Activation: HAMSTER, LIVER, S-9, AROCLOR 1254 (10 OR 30%), Method: PREINCUBATION): inactive; negative
mutagenic call [2]: inactive; negative
mutagenic call (Test System: AMES SALMONELLA TYPHIMURIUM, Strain/Indicator: TA100, Metabolic Activation: RAT, LIVER, S-9, AROCLOR 1254 (10 OR 30%), Method: PREINCUBATION): inactive; negative
mutagenic call (Test System: AMES SALMONELLA TYPHIMURIUM, Strain/Indicator: TA1535, Metabolic Activation: HAMSTER, LIVER, S-9, AROCLOR 1254 (10 OR 30%), Method: PREINCUBATION): inactive; negative
mutagenic call (Test System: AMES SALMONELLA TYPHIMURIUM, Strain/Indicator: TA1535, Metabolic Activation: NONE, Method: PREINCUBATION): inactive; negative
mutagenic call (Test System: AMES SALMONELLA TYPHIMURIUM, Strain/Indicator: TA1535, Metabolic Activation: RAT, LIVER, S-9, AROCLOR 1254 (10 OR 30%), Method: PREINCUBATION): inactive; negative
mutagenic call (Test System: AMES SALMONELLA TYPHIMURIUM, Strain/Indicator: TA1537, Metabolic Activation: HAMSTER, LIVER, S-9, AROCLOR 1254 (30%), Method: PREINCUBATION): inactive; negative
mutagenic call (Test System: AMES SALMONELLA TYPHIMURIUM, Strain/Indicator: TA1537, Metabolic Activation: NONE, Method: PREINCUBATION): inactive; negative
mutagenic call (Test System: AMES SALMONELLA TYPHIMURIUM, Strain/Indicator: TA1537, Metabolic Activation: RAT, LIVER, S-9, AROCLOR 1254 (30%), Method: PREINCUBATION): inactive; negative

O=C1CCc2ccc3ccc4ccccc4c3c21
mutagenic call [3]: inactive; negative

COS(=O)(=O)c1ccccc1
mutagenic call [4]: active; positive
mutagenic call [5]: active; positive
mutagenic call [6]: active; positive (p<0.05)
mutagenic call [7]: inactive; negative; response reported as weakly positive
mutagenic call [8]: active; positive

Cl/C=C(\Cl)c1c(Cl)c(Cl)c(Cl)c(Cl)c1Cl
mutagenic call [9]: inactive; negative
mutagenic call [10]: inactive; negative
mutagenic call [7]: inactive; negative
mutagenic call [3]: inactive; negative

c1ccc2c(c1)-c1ccc3ccccc3c1C1NC21 (stereo not given)
mutagenic call (Test System: AMES SALMONELLA TYPHIMURIUM, Strain/Indicator: TA98, Metabolic Activation: NONE, Method: PREINCUBATION (KCL-CONTAINING OR KCL-FREE MEDIA)): active; positive
mutagenic call (Test System: AMES SALMONELLA TYPHIMURIUM, Strain/Indicator: TA100, Metabolic Activation: NONE, Method: PREINCUBATION (KCL-CONTAINING MEDIUM)): active; positive
mutagenic call (Test System: AMES SALMONELLA TYPHIMURIUM, Strain/Indicator: TA100, Metabolic Activation: NONE, Method: PREINCUBATION (KCL-FREE MEDIUM)): active; positive

CC(=O)N(O)c1ccc(Oc2ccc(Cl)cc2Cl)cc1
mutagenic call [7]: inactive; negative
mutagenic call (Test System: AMES SALMONELLA TYPHIMURIUM, Strain/Indicator: TA100, Metabolic Activation: RAT, LIVER, S-9, KANECLOR 500, Method: STANDARD PLATE): active; positive

CC1=C(/C=C/C(C)=C/C=C/C(C)=C/C=C/C=C(C)/C=C/C=C(C)/C=C/C2=C(C)CCCC2(C)C)C(C)(C)CCC1
mutagenic call (End Point: IN VITRO CHROMOSOMAL ABERRATIONS, Test System: F344 FEMALE RAT HEPATOCYTE, Metabolic Activation: NONE): active; positive
mutagenic call (End Point: IN VITRO MICRONUCLEUS, Test System: F344 FEMALE RAT HEPATOCYTES, Metabolic Activation: NONE): active; positive
mutagenic call [1]: inactive; negative
mutagenic call (Test System: AMES SALMONELLA TYPHIMURIUM, Strain/Indicator: TA97, Metabolic Activation: S-9, Method: PREINCUBATION): inactive; negative
mutagenic call [9]: inactive; negative
mutagenic call [10]: inactive; negative
mutagenic call [7]: inactive; negative
mutagenic call [3]: inactive; negative
mutagenic call (Test System: AMES SALMONELLA TYPHIMURIUM, Strain/Indicator: TA102, Metabolic Activation: NONE, Method: PREINCUBATION): inactive; negative
mutagenic call (Test System: AMES SALMONELLA TYPHIMURIUM, Strain/Indicator: TA102, Metabolic Activation: S-9, Method: PREINCUBATION): inactive; negative

O=[N+]([O-])C1=Cc2cc3cc4ccccc4cc3c3cccc1c23
mutagenic call [9]: active; positive
mutagenic call [10]: active; positive
mutagenic call [7]: inactive; negative
mutagenic call [3]: inactive; negative
mutagenic call [11]: inactive; negative
mutagenic call [12]: inactive; negative
mutagenic call [13]: active; positive
mutagenic call [14]: active; positive
mutagenic call [15]: active; positive
mutagenic call [16]: inactive; negative

CN(C)c1ccc(N=Nc2cccnc2)cc1
mutagenic call [9]: inactive; negative
mutagenic call [10]: inactive; negative
mutagenic call [7]: inactive; negative
mutagenic call [3]: inactive; negative
mutagenic call [11]: inactive; negative
mutagenic call [12]: inactive; negative
mutagenic call [13]: inactive; negative
mutagenic call [14]: inactive; negative
mutagenic call [15]: inactive; negative
mutagenic call [16]: inactive; negative

CC1OC1c1ccc(C#N)cc1 (stereo not given)
mutagenic call [2]: active; positive

CCOC(=O)c1[nH]c2ccccc2c1N=Cc1ccc(NC(C)=O)cc1
mutagenic call (Test System: AMES SALMONELLA TYPHIMURIUM, Strain/Indicator: TA97, Metabolic Activation: NONE, Method: STANDARD PLATE): active; positive
mutagenic call (Test System: AMES SALMONELLA TYPHIMURIUM, Strain/Indicator: TA97, Metabolic Activation: RAT, LIVER, S-9, AROCLOR 1254, Method: STANDARD PLATE): inactive; negative
mutagenic call [9]: inactive; negative
mutagenic call [10]: inactive; negative
mutagenic call [7]: inactive; negative
mutagenic call [3]: inactive; negative
mutagenic call (Test System: AMES SALMONELLA TYPHIMURIUM, Strain/Indicator: TA102, Metabolic Activation: NONE, Method: STANDARD PLATE): inactive; negative
mutagenic call (Test System: AMES SALMONELLA TYPHIMURIUM, Strain/Indicator: TA102, Metabolic Activation: RAT, LIVER, S-9, AROCLOR 1254, Method: STANDARD PLATE): inactive; negative

Cc1cnc2c(n1)c(C)c(C)c1c2nc(N)n1C
mutagenic call [10]: active; positive

CCCCOS(=O)(=O)c1ccc(C)cc1
mutagenic call [4]: active; positive
mutagenic call [5]: inactive; negative
mutagenic call [6]: active; positive (p<0.01)
mutagenic call [7]: active; positive
mutagenic call [8]: active; positive
